Test [1] concerns the target dopamine D-1 receptor (Rattus norvegicus, UniProt P18901). The test can be described thus: biochemical. The conditions noted are these: D-1 Ki, rat caudate, [125I]SCH-23982.
Text: The compounds compete with the radiolabeled ligand for occupancy of the receptors and the molar potency of each compound was quantified.
The Ki values are inversely proportional to the affinity of the compound for the receptor.
The target of a further test is dopamine D-2 receptor (Rattus norvegicus, UniProt P61169). As to the kind of experiment: biochemical. The test is classed as binding. The following applies: rat caudate, [125I]-p-aminophenylethyl spiroperidol; read-out: D-2 Ki. On the procedure: Homogenized rat caudate was the source of the D-2 receptors. […] The molar affinity of the compound for the receptor binding site was calculated by the same method used for the D-1 receptor assay, assuming a competitive interaction between the compound and the radiolabeled ligand.
dopamine D-2 receptor, sequence (P61169 whole entry): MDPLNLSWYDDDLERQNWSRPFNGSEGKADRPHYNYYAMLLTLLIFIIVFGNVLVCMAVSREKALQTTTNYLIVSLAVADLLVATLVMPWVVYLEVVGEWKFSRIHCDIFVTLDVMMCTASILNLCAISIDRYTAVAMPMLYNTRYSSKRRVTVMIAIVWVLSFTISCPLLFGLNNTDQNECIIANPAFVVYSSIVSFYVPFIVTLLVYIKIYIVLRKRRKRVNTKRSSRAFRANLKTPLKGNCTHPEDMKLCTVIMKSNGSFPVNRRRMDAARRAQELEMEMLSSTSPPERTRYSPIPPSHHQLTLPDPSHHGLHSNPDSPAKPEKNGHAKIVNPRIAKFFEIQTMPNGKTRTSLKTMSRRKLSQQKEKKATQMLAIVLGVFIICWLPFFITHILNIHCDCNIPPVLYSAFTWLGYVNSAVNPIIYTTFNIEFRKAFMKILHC

In test [2] the test system is dopamine D-1 receptor. The conditions noted are these: for Intrinsic Activity (adenylate cyclase assay): dopamine = 100, goldfish retina or rat striatum; for EC50: read-out: EC50 (agonist activity in adenylate cyclase assay), tissue from goldfish retina or rat striatum.
Experimental: In order to determine agonist activity, cell-free tissue homogenates are incubated in an ionic buffer solution containing ATP and the compound being evaluated. The tissue was obtained from either goldfish retina or rat striatum.

Structures can show the parent of a compound that is named as a salt.

dopamine D-1 receptor (Rattus norvegicus, UniProt P18901), sequence (P18901 whole entry): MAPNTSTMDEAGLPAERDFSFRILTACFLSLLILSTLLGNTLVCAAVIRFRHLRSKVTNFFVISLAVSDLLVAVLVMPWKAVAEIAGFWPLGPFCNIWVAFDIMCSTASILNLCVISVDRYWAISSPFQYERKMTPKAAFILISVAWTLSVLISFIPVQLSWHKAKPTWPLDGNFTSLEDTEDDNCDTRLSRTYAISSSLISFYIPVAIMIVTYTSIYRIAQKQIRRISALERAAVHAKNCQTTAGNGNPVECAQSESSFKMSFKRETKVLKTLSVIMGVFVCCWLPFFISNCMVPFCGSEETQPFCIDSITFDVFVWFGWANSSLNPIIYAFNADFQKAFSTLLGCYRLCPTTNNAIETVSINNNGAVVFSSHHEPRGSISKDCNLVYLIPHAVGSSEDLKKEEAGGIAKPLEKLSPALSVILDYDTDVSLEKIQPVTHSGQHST

Consider `CC(C)C(=O)Oc1ccc2c(c1OC(=O)C(C)C)CC(c1ccccc1)C=C2CN` (stereo not drawn) [Example 18], for which the Ki at dopamine D-1 receptor [1] is 1300 nM; on dopamine D-2 receptor, above 10000 nM. For the same molecule, in the test with dopamine D-1 receptor [2], the “Intrinsic Activity (adenylate cyclase assay)” value (from here on “Intrinsic Activity”) is given as 46. The concentration for a half-maximal effect (EC50) on dopamine D-1 receptor [2] turned out to be 1500 nM.

On dopamine D-1 receptor [1], `NCC1=CC(c2ccc(O)cc2)Cc2c1ccc(O)c2O` (stereo not drawn) [Example 39] came in with a Ki of 1400 nM. For the same molecule, the inhibitory constant (Ki) at dopamine D-2 receptor was above 10000 nM. Further, in the test on dopamine D-1 receptor [2], the “Intrinsic Activity” value is 84 and the 50% effective concentration (EC50) came out at 50 nM.

Turning to `NC[C@@H]1O[C@H](COCc2ccccc2)Cc2c1ccc(O)c2O` (relative stereo) [Example 75], affinity on dopamine D-1 receptor [1] was put at a Ki of 480 nM. For the same molecule, on dopamine D-2 receptor, the Ki amounted to 4600 nM. In the test on dopamine D-1 receptor [2], the “Intrinsic Activity” value turned out to be 60 and the EC50 was 290 nM.

`NC[C@H]1O[C@@H](CNC(=O)c2ccccc2)Cc2c1ccc(O)c2O` (relative stereo) [Example 164] returned a Ki on dopamine D-1 receptor [1] of 3600 nM. Further, the Ki on dopamine D-2 receptor worked out at 250 nM. Moreover, in the test with dopamine D-1 receptor [2], the “Intrinsic Activity” value was determined as 96 and the concentration for a half-maximal effect (EC50) turned out to be 200 nM.

For `CCCCCCCCCC[C@@H]1Cc2c(ccc(O)c2O)[C@H](CN)O1` (relative stereo) [Example 65], the Ki on dopamine D-1 receptor [1] is 14000 nM. The inhibition constant (Ki) at dopamine D-2 receptor was 16000 nM. Further, in the test with dopamine D-1 receptor [2], the “Intrinsic Activity” value amounted to 91 and the concentration giving a half-maximal response (EC50) stood at 320 nM.

As to `NC[C@@H]1O[C@H](C2CCCCC2)CCc2c1ccc(O)c2O` (relative stereo) [Example 176, [1,3-cis]1-Aminomethyl-3-cyclohexyl-6,7-dihydroxy-1,3,4,5-tetrahydro-2-benzoxepin Hydrochloride], the Ki at dopamine D-1 receptor [1] came out at 650 nM. Moreover, the inhibition constant Ki at dopamine D-2 receptor was determined as 2600 nM. In the test with dopamine D-1 receptor [2], the “Intrinsic Activity” value is 90 and the concentration giving a half-maximal response (EC50) was 320 nM.

Turning to `CC(C)=CCCC(C)[C@@H]1Cc2c(ccc(O)c2O)[C@H](CN)O1` (stereo partly drawn) [Example 74], the values for the inhibition constant (Ki) at dopamine D-1 receptor [1] and on dopamine D-2 receptor were 100 nM and 2000 nM, respectively. Also, the “Intrinsic Activity” value in the test with dopamine D-1 receptor [2] is listed as 105. The EC50 at dopamine D-1 receptor [2] came to 840 nM.

`NC[C@@H]1O[C@H](Cc2ccccc2)Cc2c1ccc(O)c2O` (relative stereo) [Example 60] returned a Ki at dopamine D-1 receptor [1] of 530 nM. For the same molecule, the Ki on dopamine D-2 receptor was 2200 nM. In the test with dopamine D-1 receptor [2], the “Intrinsic Activity” value was 93 and the EC50 amounted to 37 nM.

On to `NCC1OC2(CCOCC2)Cc2c1ccc(O)c2O` (stereo not drawn) [Example 95], for which the Ki at dopamine D-1 receptor [1] worked out at 520 nM. Further, the Ki at dopamine D-2 receptor is above 10000 nM. Besides, in the test with dopamine D-1 receptor [2], the “Intrinsic Activity” value turned out to be 104 and the EC50 came out at 100 nM.

As for `CN1CCC2=C(C1)c1ccc(O)c(O)c1CC21CCCCC1` [Example 212], at dopamine D-1 receptor [1], the inhibitory constant (Ki) turned out to be 630 nM. Moreover, on dopamine D-2 receptor, the inhibition constant Ki is 700 nM. Further, in the test on dopamine D-1 receptor [2], the “Intrinsic Activity” value stood at 43 and the concentration for a half-maximal effect (EC50) was 480 nM.

In turn, `NCC1=CC(c2cccc(O)c2)Cc2c1ccc(O)c2O` (stereo not drawn) [Example 38] came in with a Ki at dopamine D-1 receptor [1] of 120 nM. Also, the Ki at dopamine D-2 receptor is 30000 nM. In the test with dopamine D-1 receptor [2], the “Intrinsic Activity” value turned out to be 91 and the EC50 worked out at 33 nM.

As to `NC[C@H]1O[C@@H](CN2CCCCC2)Cc2c1ccc(O)c2O` (relative stereo) [Example 158], the inhibition constant Ki at dopamine D-1 receptor [1] came out at 2300 nM; on dopamine D-2 receptor it was 6000 nM. In addition, the “Intrinsic Activity” value in the test on dopamine D-1 receptor [2] amounted to 100. Further, the concentration giving a half-maximal response (EC50) on dopamine D-1 receptor [2] worked out at 330 nM.

Take `NCC1=CC(c2cccc3ccccc23)Cc2c1ccc(O)c2O` (stereo not drawn) [Example 41]: the inhibition constant Ki on dopamine D-1 receptor [1] amounted to 700 nM. Besides, the Ki on dopamine D-2 receptor was 2500 nM. Besides, in the test with dopamine D-1 receptor [2], the “Intrinsic Activity” value turned out to be 81 and the concentration for a half-maximal effect (EC50) worked out at 1800 nM.

Consider `CC(C)(C)C1Cc2c(ccc(O)c2O)C2=C1CCNC2` (stereo not drawn) [Example 203], for which the inhibition constant Ki on dopamine D-1 receptor [1] was 1000 nM; on dopamine D-2 receptor, 4300 nM. Also, the “Intrinsic Activity” value with dopamine D-1 receptor [2] came to 0. At dopamine D-1 receptor [2], the EC50 is above 10000 nM.

`NC[C@@H]1O[C@H](c2ccc(Br)cc2)Cc2c1ccc(O)c2O` (relative stereo) [Example 69] displayed a Ki on dopamine D-1 receptor [1] of 87 nM. Besides, the Ki on dopamine D-2 receptor was found to be 2700 nM. For the same molecule, in the test with dopamine D-1 receptor [2], the “Intrinsic Activity” value came to 108 and the EC50 is 72 nM.
